Results: patent publication US11358933B2, “Compounds and methods for inhibiting CYP26 enzymes” (Queen's University at Kingston, priority 2017, dated 2022)

Experiments:
CYP26B1 = CYP26B1 (Homo sapiens (Human), UniProt Q9NR63); assay: Cell-based inhibitor assay ([3H]-RA metabolism), CYP26B1 stably transfected HeLa cells; conditions: for IC50: HeLa cell-based assay, 3 hours; for CYP26B1 Rel. to keto: IC50 relative to ketoconazole
Method: (§1) CYP26A1 or CYP26B1 stably transfected HeLa cells were maintained in Minimum Essential Medium (MEM) containing 10% fetal bovine serum (FBS) and 100 μg/mL hygromycin. Exponentially growing cells were harvested by incubation in trypsin. Cells were then collected and re-plated in 48-well culture plates at 5×10^5 cells in 0.2 mL of culture medium containing 0.05 μCi [^3H]-RA in the presence or absence of increasing concentrations of a test compound. The test compounds were diluted in dimethyl sulfoxide (DMSO) and then added in duplicate to wells at 0.01, 0.1, 1, 10 and 100 μM final concentration. As a positive control for inhibition of RA metabolism, cells were also incubated with ketoconazole at the same concentrations as above. Cells were incubated for 3 hours at 37° C. Retinoids were then extracted using the procedure of Bligh, et al., (1959), Canadian Journal of Biochemistry 37, 911-917, which was modified by using dichloromethane instead of chloroform. Each sample's water soluble radioactivity level was quantified using a β-scintillation counter (using Ecolume scintillation fluid, available from MP Biomedicals of Solon, Ohio, USA). IC50 values represented the concentration of inhibitor required to inhibit all trans-RA metabolism by 50%, and were derived from log transformed data.

CYP26A1 = CYP26A1 (Homo sapiens (Human), UniProt O43174); assay: Cell-based inhibitor assay ([3H]-RA metabolism), CYP26A1 stably transfected HeLa cells; conditions: for IC50: HeLa cell-based assay, 3 hours; for CYP26A1 Rel. to keto: IC50 relative to ketoconazole
Method: as §1

[1] = tested on: Cyp26a1-luc construct in MCF-7 cells; assay: Retinoid activity assay, Cyp26a1-luc reporter in MCF-7 cells; assay type: cell-based; conditions: 24 hours, firefly relative to Renilla luciferase
Description: This retinoid activity assay measures the ability of test compounds to induce expression of a transiently transfected RA sensitive reporter construct. In this assay, MCF-7 cells are transfected with a construct comprising an upstream promoter of the CYP26A1 gene containing 2 RA response elements driving expression of firefly luciferase (pCYP26A1-luc). Since CYP26A1 is highly inducible by RA in these cells, this construct serves as a sensitive reporter of retinod-like transcriptional activity.
MCF-7 cells were maintained in a RPMI-1640 medium containing 10% FBS. Exponentially growing cells were harvested by incubation in trypsin. Cells were then collected and plated in 24-well plates at 50,000 cells/well. Once cells reached 80-90% confluence (e.g., the next day), cells were transfected with two plasmids. The first plasmid was CYP26A1-luc construct (375 ng). The second plasmid was a control plasmid comprising the Renilla luciferase gene driven by constitutive thymidine kinase promoter (pRL-tk) (25 ng). Transfection was performed using FuGene 6 transfection reagent (Promega) with a 1:3 ratio of DNA:FuGene. 24 hours after transfection, cells were treated with test compounds diluted in DMSO in triplicate at 0.1, 1 and 10 μM final concentrations. As a positive control for reporter activation, cells were also treated with RA diluted in DMSO at the same concentrations listed above. DMSO treatment alone served as a negative control. After 24 hours of treatment, cells were harvested in passive lysis buffer (Promega) and luciferase activity in cell lysates were read using a luminometer. Data are expressed as the activity of firefly luciferase relative to Renilla luciferase (see Tables 3-5). For CYP26A1 inhibitor compounds, no activation of the reporter was detected, while the related retinoid-like compound induces luciferase expression.

kasumi-1 human AML cells = assay: CD34+CD38- LSC analysis by FACS, Kasumi-1 cells with or without OP9 stroma; assay type: cell-based; conditions: 1 μM RA alone, without stroma
Method: (§2) Many human non-APL AML cell lines are sensitive to RA-induced differentiation. However, co-culture of leukemic cells with bone marrow stromal cells can block this effect of RA. This assay tests the ability of CYP26 inhibitor compounds to overcome the protective effect that stromal cells have on leukemic cell differentiation. For these experiments, OP9 mouse bone marrow stromal cells are grown MEM-α containing 20% FBS, in 24 well plates until a cell monolayer is formed. OP9 cells are then irradiated (15Gy) using a GammaCell 20 cesium-137 source (located at Queen's University) in order to induce growth arrest. Leukemic cells are then added to the irradiated monolayers, or control wells without OP9 cells. AML cell lines (150,000 cells) are then plated onto OP9 monolayers in their appropriated growth medium; THP-1 RPMI-1640 medium containing 10% FBS; MDSL, RPMI-1640 medium containing 10% FBS and 10 ng/ml recombinant human IL-3; Kasumi-1, RPMI-1640 containing 20% FBS; MV4-11, IMDM containing 10% FBS. […] Stained cells are then sorted by FACS in a BD FACS Aria 3 flow cytometer (Queen's University) using FACS Diva software, to assess percentage of cells that are CD11b^+, the relative expression levels of CD11b (by median fluorescence intensity—MFI), or percentage of CD34^+CD38^− leukemic stem cells (LSCs). […]

rhino mice = assay: Rhino mouse model of acne; assay type: in vivo; conditions: topical 10 nmol RA, 5 times per week, two weeks
Method: These experiments test the ability of CYP26 inhibitor compounds and other retinoids for potential anti-acne efficacy in a mouse model of acne. The rhino mouse model is a hairless mutant that develops skin lesions similar to acne, and has been used extensively as a model to assess new acne treatments, as well as in vivo activity of retinoids. Test compounds or RA were dissolved in acetone/10% DMSO, and 0.4 ml was applied topically to the dorsal skin of animals (2 male+2 female) once a day for five days per week, for two consecutive weeks. On the day after the last treatment, animals were sacrificed and skin was collected from the treated are and processed for histology, and epidermal sheets prepared for visualization of utriculi. Histological sections were prepared by paraffin embedding of formalin fixed samples, and stained with hematoxylin and eosin. Photographs were taken under a Nikon Eclipse E600 microscope using Q Imaging software at 20× magnification. Epidermal sheets were prepared by treating skin samples for 5 days in 0.5% acetic acid at 4° C. for 5 days, after which the dermal and epidermal layers were carefully separated, and the epidermis was then dehydrated with a series of ethanol treatments (70%, 80%, 90% and 100%). […]

MV4-11 cells [2] = assay: Leukemia cell differentiation by FACS (CD11b+), MV4-11 cells with or without stroma; assay type: cell-based, human; conditions: RA alone, without stroma
Method: as §2

MV4-11 cells [3] = assay: Leukemia cell apoptosis (FITC-Annexin V), MV4-11 cells; assay type: cell-based, human; conditions: RA alone
Method: RA can also induce apoptosis is a variety of cell types, including AML cells. This experiment tests CYP26 inhibitor compounds for their ability to rescue RA-induced apoptosis in the presence of bone marrow stromal cells. For these experiments MV4-11 AML cells are plated as above, in the presence and absence of stromal monolayers. Cells are then treated for 48 hours with RA (0.1 μM). After the treatment period, cells are stained with a FITC-labeled annexin V antibody (available from Thermofisher Scientific), which binds to the surface of apoptotic cells. Cells are then sorted by FACS in a as above and data are expressed as percentage of annexin V^+ (apoptotic) cells.

human AML THP-1 cells = assay: Leukemia cell differentiation by FACS (PE-CD11b), THP-1 cells with or without OP9 stroma; assay type: cell-based; conditions: RA alone
Method: Many human non-APL AML cell lines are sensitive to RA-induced differentiation. However, co-culture of leukemic cells with bone marrow stromal cells can block this effect of RA. This assay tests the ability of CYP26 inhibitor compounds to overcome the protective effect that stromal cells have on leukemic cell differentiation. For these experiments, OP9 mouse bone marrow stromal cells are grown MEM-α containing 20% FBS, in 24 well plates until a cell monolayer is formed. OP9 cells are then irradiated (15Gy) using a GammaCell 20 cesium-137 source (located at Queen's University) in order to induce growth arrest. Leukemic cells are then added to the irradiated monolayers, or control wells without OP9 cells. AML cell lines (150,000 cells) are then plated onto OP9 monolayers in their appropriated growth medium; THP-1 RPMI-1640 medium containing 10% FBS; MDSL, RPMI-1640 medium containing 10% FBS and 10 ng/ml recombinant human IL-3; Kasumi-1, RPMI-1640 containing 20% FBS; MV4-11, IMDM containing 10% FBS. Cells are then treated for 72 hours with DMSO (vehicle control), RA (0.1 μM for THP-1 and MV4-11 cells, and 1 μM for Kasumi-1 cells), test CYP26 inhibitor compound, or the combination of RA and inhibitor compound. After the treatment period, leukemic cells are collected and stained with fluorophore labeled antibodies against cell surface antigens indicative of myeloid differentiation (PE-CD11b), or of stem cell populations (FITC-CD34, PE-CD38); all antibodies are available from BD Biosciences. Stained cells are then sorted by FACS in a BD FACS Aria 3 flow cytometer (Queen's University) using FACS Diva software, to assess percentage of cells that are CD11b^+, the relative expression levels of CD11b (by median fluorescence intensity—MFI), or percentage of CD34^+CD38^− leukemic stem cells (LSCs). Results are typically presented as the average of triplicates.

THP-1 cells = assay: Leukemia cell colony formation, THP-1 cells; assay type: cell-based, human; conditions: RA alone, without stroma
Method: This experiment is used to test the long-term proliferative ability of hematopoietic stem and progenitor cells as well as leukemic stem cells. Colony forming ability in long term cultures is indicative of stem/progenitor cell activity. […] For these experiments, bone marrow stromal and leukemic cell co-cultures are prepared as described above and treated with RA and/or CYP26 inhibitor compound for 72 hours. After the treatment period, leukemic cells are collected and re-plated in semi-solid methylcellulose medium to assess colony forming ability. 500 leukemic cells are plated per dish in 35 mm plates in 1.1 ml of MethoCult (available from STEMCELL Technologies, Vancouver, Canada). Triplicate plates are prepared per treatment, and cultures are grown for 14-16 days in a CO2 incubator. After the culture period colonies are counted under a dissecting microscope.

Sequence of CYP26B1 (Q9NR63 whole entry): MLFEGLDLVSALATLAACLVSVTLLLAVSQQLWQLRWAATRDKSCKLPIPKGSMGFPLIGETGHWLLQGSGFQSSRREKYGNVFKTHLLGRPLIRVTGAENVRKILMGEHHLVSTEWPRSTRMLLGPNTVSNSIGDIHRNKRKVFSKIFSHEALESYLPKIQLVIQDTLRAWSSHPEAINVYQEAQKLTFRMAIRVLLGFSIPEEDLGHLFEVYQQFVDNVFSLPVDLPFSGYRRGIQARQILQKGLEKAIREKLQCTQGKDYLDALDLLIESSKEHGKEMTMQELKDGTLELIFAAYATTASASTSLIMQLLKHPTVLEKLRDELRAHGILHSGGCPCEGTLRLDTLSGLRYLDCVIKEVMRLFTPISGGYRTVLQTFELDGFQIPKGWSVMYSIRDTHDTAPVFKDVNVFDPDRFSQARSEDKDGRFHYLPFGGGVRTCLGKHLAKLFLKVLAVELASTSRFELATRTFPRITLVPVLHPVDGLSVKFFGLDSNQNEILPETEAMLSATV
Sequence of CYP26A1 (O43174 whole entry): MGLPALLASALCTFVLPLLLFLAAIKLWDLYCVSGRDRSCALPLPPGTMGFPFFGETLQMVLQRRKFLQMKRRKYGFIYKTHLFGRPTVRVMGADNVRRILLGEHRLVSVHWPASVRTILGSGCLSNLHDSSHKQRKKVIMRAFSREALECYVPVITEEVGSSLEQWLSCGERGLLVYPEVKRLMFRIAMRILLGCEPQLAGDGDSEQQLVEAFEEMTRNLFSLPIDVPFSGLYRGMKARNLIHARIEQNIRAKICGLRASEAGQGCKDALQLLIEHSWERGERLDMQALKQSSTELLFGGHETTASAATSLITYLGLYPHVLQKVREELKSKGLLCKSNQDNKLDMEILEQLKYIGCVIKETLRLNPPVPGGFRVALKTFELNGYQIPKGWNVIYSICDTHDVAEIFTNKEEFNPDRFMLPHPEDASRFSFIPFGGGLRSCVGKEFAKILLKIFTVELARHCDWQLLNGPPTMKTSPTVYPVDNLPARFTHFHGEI

| IC50 (CYP26B1) [µM] | CYP26B1 Rel. to keto (CYP26B1) | IC50 (CYP26A1) [µM] | CYP26A1 Rel. to keto (CYP26A1) | SMILES | Rel. Luciferase Activity (mean) ([1]; 0.1 μM) | Rel. Luciferase Activity (mean) ([1]; 1 μM) | Rel. Luciferase Activity (mean) ([1]; 10 μM) | Number of CD34+CD38- cells (LSCs) (kasumi-1 human AML cells) | Utriculi size and epidermis thickness (rhino mice) | Percentage of CD11b+ cells (MV4-11 cells [2]) | Apoptosis (Annexin V positive cells) (MV4-11 cells [3]) | CD11b marker expression (MFI) (human AML THP-1 cells) | Colony forming ability (THP-1 cells) |
| --- | --- | --- | --- | --- | --- | --- | --- | --- | --- | --- | --- | --- | --- |
| 2.3 | 0.3 | 8.6 | 1.2 | CC(C)(C)c1cccc(-c2cc3cc(CC(=O)O)ccc3o2)c1 [Compound 032] | .0019 | .0015 | .0004 | – | – | – | – | – | – |
| 8.8 | 0.9 | 8.6 | 1.2 | C=CCc1cc(C(=O)Cc2ccc(CC(=O)O)cc2)cc2c1OC(C)(C)CC2(C)C [Compound 027] | .0116 | .0099 | .0121 | – | – | – | – | – | – |
| > 1000 | – | > 1000 | – | CC1(C)CC(C)(C)c2cc(C(=O)Cc3ccc(CC(=O)O)cc3)cc(C3CC3)c2O1 [Compound 028] | .0165 | .0094 | .0144 | – | – | – | – | – | – |
| 18.3 | 2 | – | – | CC(C)(C)c1cccc(-c2cc3cc(/C=C/C(=O)O)ccc3o2)c1 [Compound 031] | .0039 | .0047 | .0034 | – | – | – | – | – | – |

Continued, compound first:

| SMILES | IC50 (CYP26B1) [µM] | CYP26B1 Rel. to keto (CYP26B1) | IC50 (CYP26A1) [µM] | CYP26A1 Rel. to keto (CYP26A1) | Rel. Luciferase Activity (mean) ([1]; 0.1 μM) | Rel. Luciferase Activity (mean) ([1]; 1 μM) | Rel. Luciferase Activity (mean) ([1]; 10 μM) | Number of CD34+CD38- cells (LSCs) (kasumi-1 human AML cells) | Utriculi size and epidermis thickness (rhino mice) | Percentage of CD11b+ cells (MV4-11 cells [2]) | Apoptosis (Annexin V positive cells) (MV4-11 cells [3]) | CD11b marker expression (MFI) (human AML THP-1 cells) | Colony forming ability (THP-1 cells) |
| --- | --- | --- | --- | --- | --- | --- | --- | --- | --- | --- | --- | --- | --- |
| CC(C)(C)c1cccc(B(O)Oc2ccc(/C=C/C(=O)O)cc2)c1 [Compound 029] | 54.9 | 5.7 | – | – | .0386 | .0384 | .0333 | – | – | – | – | – | – |
| Cc1ccc(C(C)(C)C)cc1-c1cc2cc(/C=C/C(=O)O)ccc2[nH]1 [Compound 034] | 0.5 | 0.2 | 9.6 | 1.9 | – | – | – | – | – | – | – | – | – |
| CC(C)(C)c1cccc(C(=O)Cc2ccc(/C=C/C(=O)O)cc2)c1 [Compound 025] | 17.9 | 4.2 | 45.6 | 21.7 | .0144 | .01 | .0128 | – | – | – | – | – | – |
| CC1(C)CC(C)(C)c2cc(B3Oc4ccc(CC(=O)O)cc4O3)cc(C3CC3)c2O1 [Compound 030] | 88.1 | 9.2 | 31.5 | 20 | .0411 | .0343 | .0385 | – | – | – | – | – | – |
| CC1=C(/C=C/C(C)=C/C=C/C(C)=C/C(=O)O)C(C)(C)CCC1 [RA, retinoic acid, reference compound] | – | – | – | – | – | – | – | significantly reduced the number of these cells | reduction in the size of these utriculi, and a thickening of the epidermis | increased the percentage of | undergo apoptosis in response to RA | significantly increases expression of the CD11b marker | reduced in THP-1 cells by exposure to RA |
| CC1(C)CC(C)(C)c2cc(-c3cc4cc(CC(=O)O)ccc4o3)cc(C3CC3)c2O1 [Compound 033] | – | – | – | – | .0024 | .0026 | .0027 | – | – | – | – | – | – |
